Structures can show the parent of a compound that is named as a salt.
Assays:
[1] = target: T1, Bcl-XL (Homo sapiens, UniProt Q07817); experiment: Bcl-XL FP assay (competitive fluorescence polarization binding assay, FITC-Bim BH-3 peptide tracer); conditions: C-terminal 6×HIS tagged Bcl-XL (aa 1-209), 0.8 nM; 2 nM FITC-Bim peptide tracer
T1 construct: a C-terminal 6×HIS tagged Bcl-XL (aa 1-209); 6xHis (C)
From the text: (§1) Bcl-xL and Bcl-2 FP binding affinity of compound(s) of Formulae (I), (I-a), (I-b), (I-c), (I-d) and/or (I-e) may be determined using a variety of known methods. One such assay is a sensitive and quantitative in vitro binding assay using fluorescence polarization (“FP”) described by Wang, J.-L.; Zhang, Z-J.; Choksi, S.; Sjam. S.; Lu, Z.; Croce, C. M.; Alnemri, E. S.; Komgold, R.; Huang, Z. Cell permeable Bcl-2 binding peptides: a chemical approach to apoptosis induction in tumor cells. Cancer Res. 2000, 60, 1498-1502).
(§2) Additionally, the binding affinity of compound(s) of Formulae (I), (I-a), (I-b), (I-c), (I-d) and/or (I-e) to Bcl-2 protein in vitro was determined by a competitive binding assay based on fluorescence polarization. For example, fluorescence polarization (“FP”) assays may be developed using a c-terminal 6×HIS tagged Bcl-2 (aa 1-204) and a C-terminal 6×HIS tagged Bcl-XL (aa 1-209). […] Dilutions of either Bcl-2 (1.3 nM) or Bcl-XL (0.8 nM) may be added to serial dilutions of antagonist and incubated for one hour prior to the addition of 2 nM of fluorescent peptide tracer (Anaspec, Fremont, Calif.) in the assay buffer. Final assay buffer conditions may be 20 mM HEPES, pH 7.5, 1 mM DTT, 0.005% Tween-20 and 50 mM NaCl. Samples may be read after 20-minute incubation. Fluorescence polarization values may be plotted as a function of the antagonist concentration.

[2] = target: T2, Bcl-2 (Homo sapiens, UniProt P10415); experiment: Bcl-2 FP assay (competitive fluorescence polarization binding assay, FITC-Bim BH-3 peptide tracer); conditions: c-terminal 6×HIS tagged Bcl-2 (aa 1-204), 1.3 nM; 2 nM FITC-Bim peptide tracer
T2 construct: a c-terminal 6×HIS tagged Bcl-2 (aa 1-204); 6xHis (C)
T2 sequence (P10415 1-204): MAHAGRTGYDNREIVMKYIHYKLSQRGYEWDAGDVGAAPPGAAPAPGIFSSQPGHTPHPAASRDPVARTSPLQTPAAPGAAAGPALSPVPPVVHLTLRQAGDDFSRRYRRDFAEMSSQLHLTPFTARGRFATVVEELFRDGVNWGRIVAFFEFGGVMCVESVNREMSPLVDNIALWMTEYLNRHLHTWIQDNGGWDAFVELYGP
From the text: as §1, §2

T1 sequence (Q07817 1-209): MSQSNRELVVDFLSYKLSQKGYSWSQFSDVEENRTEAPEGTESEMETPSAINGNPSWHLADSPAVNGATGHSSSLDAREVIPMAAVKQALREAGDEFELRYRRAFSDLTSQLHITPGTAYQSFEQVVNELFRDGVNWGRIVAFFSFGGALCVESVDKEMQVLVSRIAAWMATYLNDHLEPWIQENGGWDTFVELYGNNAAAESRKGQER

IC50 [1]	IC50 [2]	Structure (SMILES)
78 nM	253 nM	O=C(NS(=O)(=O)c1ccc(N[C@H](CCN2CCOCC2)CSc2ccccc2)c(S(=O)(=O)C(F)(F)F)c1)c1ccc(N2CCC([C@H](O)c3ccccc3-c3ccc(Cl)cc3)CC2)cc1 [Example 14, 4-(4-((S)-(4′-chlorobiphenyl-2-yl)(hydroxy)methyl)piperidin-1-yl)-N-(4-((R)-4-morpholino-1-(phenylthio)butan-2-ylamino)-3-(trifluoromethylsulfonyl)phenylsulfonyl)benzamide]
1 nM	3 nM	O=C(NS(=O)(=O)c1ccc(N[C@H](CCN2CCOCC2)CSc2ccccc2)c(S(=O)(=O)C(F)(F)F)c1)c1ccc(N2CCC([C@@H](O)c3ccccc3-c3ccc(Cl)cc3)CC2)cc1 [Example 15, 4-(4-((R)-(4′-chlorobiphenyl-2-yl)(hydroxy)methyl)piperidin-1-yl)-N-(4-((R)-4-morpholino-1-(phenylthio)butan-2-ylamino)-3-(trifluoromethylsulfonyl)phenylsulfonyl)benzamide]
1 nM	0.8 nM	O=C(NS(=O)(=O)c1ccc(N[C@H](CCN2CCOCC2)CSc2ccccc2)c([N+](=O)[O-])c1)c1ccc(N2CCC([C@@H](O)c3ccccc3-c3ccc(Cl)cc3)CC2)cc1 [Example 16, 4-(4-((R)-(4′-chlorobiphenyl-2-yl)(hydroxy)methyl)piperidin-1-yl)-N-(4-((R)-4-morpholino-1-(phenylthio)butan-2-ylamino)-3-nitrophenylsulfonyl)benzamide]
1 nM	0.3 nM	CCN(CC)C[C@H]1COCCN1CC[C@H](CSc1ccccc1)Nc1ccc(S(=O)(=O)NC(=O)c2ccc(N3CCC([C@@H](O)c4ccccc4-c4ccc(Cl)cc4)CC3)cc2)cc1S(=O)(=O)C(F)(F)F [Example 20, 4-(4-((R)-(4′-chlorobiphenyl-2-yl)(hydroxy)methyl)piperidin-1-yl)-N-(4-((R)-4-((S)-3-((diethylamino)methyl)morpholino)-1-(phenylthio)butan-2-ylamino)-3-(trifluoromethylsulfonyl)phenylsulfonyl)benzamide]
0.5 nM	0.3 nM	CCN(CC)C[C@@H]1COCCN1CC[C@H](CSc1ccccc1)Nc1ccc(S(=O)(=O)NC(=O)c2ccc(N3CCC([C@@H](O)c4ccccc4-c4ccc(Cl)cc4)CC3)cc2)cc1S(=O)(=O)C(F)(F)F [Example 21, 4-(4-((R)-(4′-chlorobiphenyl-2-yl)(hydroxy)methyl)piperidin-1-yl)-N-(4-((R)-4-((R)-3-((diethylamino)methyl)morpholino)-1-(phenylthio)butan-2-ylamino)-3-(trifluoromethylsulfonyl)phenylsulfonyl)benzamide]
2 nM	4 nM	CC(C)(C)OP(=O)(O)OCO[C@@H](c1ccccc1-c1ccc(Cl)cc1)C1CCN(c2ccc(C(=O)NS(=O)(=O)c3ccc(N[C@H](CCN4CCOCC4)CSc4ccccc4)c(S(=O)(=O)C(F)(F)F)c3)cc2)CC1 [Example 28, tert-Butyl((R)-(4′-chlorobiphenyl-2-yl)(1-(4-(4-((R)-4-morpholino-1-(phenylthio)butan-2-ylamino)-3-(trifluoromethylsulfonyl)phenylsulfonylcarbamoyl)-phenyl)piperidin-4-yl)methoxy)methyl hydrogen phosphate]
19 nM	27 nM	CNCC(=O)N[C@@H](c1ccccc1-c1ccc(Cl)cc1)C1CCN(c2ccc(C(=O)NS(=O)(=O)c3ccc(N[C@H](CCN4CCOCC4)CSc4ccccc4)c(S(=O)(=O)C(F)(F)F)c3)cc2)CC1 [Example 34, 4-(4-((R)-(4′-chlorobiphenyl-2-yl)(2-(methylamino)acetamido)methyl)piperidin-1-yl)-N-(4-((R)-4-morpholino-1-(phenylthio)butan-2-ylamino)-3-(trifluoromethylsulfonyl)phenylsulfonyl)benzamide, hydrochloride salt]
22 nM	38 nM	NCC(=O)N[C@@H](c1ccccc1-c1ccc(Cl)cc1)C1CCN(c2ccc(C(=O)NS(=O)(=O)c3ccc(N[C@H](CCN4CCOCC4)CSc4ccccc4)c(S(=O)(=O)C(F)(F)F)c3)cc2)CC1 [Example 35, 4-(4-((R)-(2-aminoacetamido)(4′-chlorobiphenyl-2-yl)methyl)piperidin-1-yl)-N-(4-((R)-4-morpholino-1-(phenylthio)butan-2-ylamino)-3-(trifluoromethylsulfonyl)phenylsulfonyl)benzamide hydrochloride salt]
18 nM	24 nM	CN(C)[C@@H](c1ccccc1-c1ccc(Cl)cc1)C1CCN(c2ccc(C(=O)NS(=O)(=O)c3ccc(N[C@H](CCN4CCOCC4)CSc4ccccc4)c(S(=O)(=O)C(F)(F)F)c3)cc2)CC1 [Example 36, 4-(4-((R)-(4′-chlorobiphenyl-2-yl)(dimethylamino)methyl)piperidin-1-yl)-N-(4-((R)-4-morpholino-1-(phenylthio)butan-2-ylamino)-3-(trifluoromethylsulfonyl)phenylsulfonyl)benzamide, hydrochloride salt]

Structure (SMILES)	IC50 [1]	IC50 [2]
O=C(NS(=O)(=O)c1ccc(N[C@H](CCN2CCO[C@@H](CO)C2)CSc2ccccc2)c(S(=O)(=O)C(F)(F)F)c1)c1ccc(N2CCC([C@@H](O)c3ccccc3-c3ccc(Cl)cc3)CC2)cc1 [Example 22, 4-(4-((R)-(4′-chlorobiphenyl-2-yl)(hydroxy)methyl)piperidin-1-yl)-N-(4-((R)-4-((R)-2-(hydroxymethyl)morpholino)-1-(phenylthio)butan-2-ylamino)-3-(trifluoromethylsulfonyl)phenylsulfonyl)benzamide, formic acid salt]	3 nM	0.6 nM
O=C(NS(=O)(=O)c1ccc(N[C@H](CCN2CCO[C@H](CO)C2)CSc2ccccc2)c(S(=O)(=O)C(F)(F)F)c1)c1ccc(N2CCC([C@@H](O)c3ccccc3-c3ccc(Cl)cc3)CC2)cc1 [Example 23, 4-(4-((R)-(4′-chlorobiphenyl-2-yl)(hydroxy)methyl)piperidin-1-yl)-N-(4-((R)-4-((S)-2-(hydroxymethyl)morpholino)-1-(phenylthio)butan-2-ylamino)-3-(trifluoromethylsulfonyl)phenylsulfonyl)benzamide, formic acid salt]	1 nM	1 nM
CCOP(=O)(OCC)O[C@@H](c1ccccc1-c1ccc(Cl)cc1)C1CCN(c2ccc(C(=O)NS(=O)(=O)c3ccc(N[C@H](CCN4CCOCC4)CSc4ccccc4)c(S(=O)(=O)C(F)(F)F)c3)cc2)CC1 [Example 29, (R)-(4′-chlorobiphenyl-2-yl)(1-(4-(4-((R)-4-morpholino-1-(phenylthio)butan-2-ylamino)-3-(trifluoromethylsulfonyl)phenylsulfonylcarbamoyl)phenyl)piperidin-4-yl)methyl diethyl phosphate, hydrochloride salt]	12 nM	30 nM
COP(=O)(O)O[C@@H](c1ccccc1-c1ccc(Cl)cc1)C1CCN(c2ccc(C(=O)NS(=O)(=O)c3ccc(N[C@H](CCN4CCOCC4)CSc4ccccc4)c(S(=O)(=O)C(F)(F)F)c3)cc2)CC1 [Example 30, (R)-(4′-chlorobiphenyl-2-yl)(1-(4-(4-((R)-4-morpholino-1-(phenylthio)butan-2-ylamino)-3-(trifluoromethylsulfonyl)phenylsulfonylcarbamoyl)phenyl)piperidin-4-yl)methyl methyl hydrogen phosphate, hydrochloride salt]	1 nM	1 nM
N[C@@H](c1ccccc1-c1ccc(Cl)cc1)C1CCN(c2ccc(C(=O)NS(=O)(=O)c3ccc(N[C@H](CCN4CCOCC4)CSc4ccccc4)c(S(=O)(=O)C(F)(F)F)c3)cc2)CC1 [Example 33, 4-(4-((R)-amino(4′-chlorobiphenyl-2-yl)methyl)piperidin-1-yl)-N-(4-((R)-4-morpholino-1-(phenylthio)butan-2-ylamino)-3-(trifluoromethylsulfonyl)phenylsulfonyl)benzamide, formic acid salt]	33 nM	30 nM

Source: patent publication US20130310344A1, “N-ACYLSULFONAMIDE APOPTOSIS PROMOTERS” (ASTRAZENECA AB, priority 2010, published 2013)
